Measurements from patent US6436973B1, “LTA4 hydrolase inhibitors” (Bioprojet, priority 1998, dated 2002).
Structures can show the parent of a compound that is named as a salt. Values belong to the compound of their own block, whether it stands above or below them.

What was measured:
[1] = molecular target: T1, LTA4 hydrolase activity in human whole blood (Homo sapiens, UniProt P09960); experiment: Inhibition of the biosynthesis of LTB4 in vitro in human whole blood; type: cell-based; settings: LTA4 substrate, LTB4 by enzyme-linked immunoassay
T1 construct: from tissue; host or cells: human whole blood collected over sodium heparinate
T1 sequence (P09960 1-611): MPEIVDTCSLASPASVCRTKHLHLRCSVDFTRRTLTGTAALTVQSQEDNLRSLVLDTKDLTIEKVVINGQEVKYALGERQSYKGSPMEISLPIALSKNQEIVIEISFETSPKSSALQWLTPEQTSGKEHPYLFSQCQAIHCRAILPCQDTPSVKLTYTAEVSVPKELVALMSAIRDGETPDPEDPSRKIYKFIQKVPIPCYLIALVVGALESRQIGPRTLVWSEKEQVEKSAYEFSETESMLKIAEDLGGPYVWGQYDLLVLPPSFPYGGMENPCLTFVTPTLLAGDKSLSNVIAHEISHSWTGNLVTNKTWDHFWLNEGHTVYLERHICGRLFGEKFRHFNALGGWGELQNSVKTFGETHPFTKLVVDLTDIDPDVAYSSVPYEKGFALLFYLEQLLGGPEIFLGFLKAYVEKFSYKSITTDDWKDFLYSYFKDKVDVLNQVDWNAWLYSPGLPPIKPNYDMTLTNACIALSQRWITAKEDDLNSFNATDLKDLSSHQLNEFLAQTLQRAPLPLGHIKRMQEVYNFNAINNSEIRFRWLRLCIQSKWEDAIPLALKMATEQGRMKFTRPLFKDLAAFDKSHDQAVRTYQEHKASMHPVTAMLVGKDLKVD
Protocol: 2) Inhibition of the biosynthesis of LTB4 in vitro
The biosynthesis of LTB4 is measured in human whole blood in the presence of inhibitors of LTA4 hydrolase according to the invention. A 50 μl blood sample collected over sodium heparinate is preincubated for 10 minutes at 37° C. in the presence of inhibitor (50 mM Tris-HCl, 0.15 M NaCl, 10^−5 M DTT, pH 7.4).
The LTA4 substrate was freshly prepared by alkaline hydrolysis of LTA4 methyl ester (Cayman Chemical Co., USA). After incubating for 10 minutes in the presence of LTA4 (1 μm in 50 mM Tris-HCl, 0.15 M NaCl, 0.5% BSA, pH 7.4), the reaction is stopped by diluting 1/20 in 0.1 M potassium phosphate buffer containing 1.5 mM […], 0.4 M NaCl, 1 mM EDTA, 0.1% BSA, pH 7.4−4° C.
The LTB4 is assayed by enzyme-linked immunoassay (Cayman Chemical Co, USA).

[2] = molecular target: T2, human recombinant LTA4 hydrolase (Homo sapiens, UniProt P09960); experiment: Inhibition of the aminopeptidase activity of recombinant LTA4 hydrolase (fluorimetric, Ala-AMC); type: biochemical; settings: human recombinant enzyme, Ala-AMC 25 μM, DTT 10^−5 M, pH 7.4, 37° C.
T2 construct: made in house; host or cells: E. coli JM109
T2 sequence (P09960 1-611): T1 sequence (P09960 1-611)
Protocol: 1) Inhibition of the aminopeptidase activity of recombinant LTA4 hydrolase
The compounds were tested using human recombinant LTA4 hydrolase (Minami et al., FEBS Letters, 1988, 229: 279). The LTA4 hydrolase expressed by E. coli JM109 is purified mainly according to Minami et al., (J. Biol. Chem., 1987, 262: 13873).
(§1) The inhibition of the aminopeptidase activity of the enzyme is measured by means of a fluorimetric method in 96-well microplates. The recombinant enzyme (0.5 μg in 50 μl of 50 mM Tris-HCl pH 7.4) is preincubated for 10 minutes at 37° C. in the presence of inhibitor and of dithiothreitol (DTT, 10^−5 M). The substrate alanyl-amido-methylcoumarin (Ala-AMC, 25 μM−Tris HCl 50 mM, pH 7.4) is added and the incubation is continued for 15 minutes at 37° C. The release of AMC is measured by fluorimetry.

[3] = tested on: oedema of the leg induced by Zymosan; experiment: Oedema of the leg induced by Zymosan in mice; type: in vivo; settings: oral route, 30 mg/kg, one hour before zymosan, sacrificed after 4 hours
Protocol: a) Oedema of the leg induced by Zymosan in mice Zymosan is a polysaccharide of the yeast cell membrane. Injected into the leg of animals, it causes a local inflammatory reaction in the form of an oedema. One hour after administration of the inhibitor tested by the oral route to mice, at the dose of 30 mg/kg, 25 μl of zymosan (0.05% in 0.15 M NaCl) are injected into the left hind leg and 25 μl of physiological saline into the right leg as control. The animal is sacrificed after 4 hours, the legs cut at the ankle and weighed in order to evaluate the oedema developed.

[4] = tested on: biosynthesis of LTB4 in the air pouch; experiment: Inflammation induced by carrageenan in the air pouch model in mice (LTB4 in exudate); type: in vivo
Protocol: b) Inflammation induced by carrageenan in the air pouch model in mice
The air pouches are formed in mice according to Dawson et al. (Int. J. Tiss. React., 1991, XIII: 171). On day D, 5 ml of air are injected by the subcutaneous route into the back of the mice. On D+3, the pouch is maintained by reinjecting 3 ml of air. On D+6, either a cyclooxygenase inhibitor (indomethacin 5 mg/kg), or an LTA4 hydrolase inhibitor according to the invention (25 mg/kg), or the two in combination are administered by the oral route. After 1 h, 1 ml of 1% carrageenan is injected into the air pouch. The animals are sacrificed 4 h after the injection of carrageenan. The air pouche is washed with 1 ml of 50 mM potassium phosphate buffer containing 0.15 M NaCl, pH 7.4. The exudate is recovered and centrifuged at 10,000 g for 5 minutes. LTB4 is assayed in the supernatant by enzyme-linked immunoassay.

[5] = molecular target: T3, aminopeptidase M (EC 3.4.11.2) (Sus scrofa, UniProt P15145); experiment: Inhibition of membrane aminopeptidase M (same fluorimetric test); type: biochemical; settings: 0.1 μg aminopeptidase M (Pierce)
T3 construct: purchased Pierce, USA
T3 sequence (P15145 1-963): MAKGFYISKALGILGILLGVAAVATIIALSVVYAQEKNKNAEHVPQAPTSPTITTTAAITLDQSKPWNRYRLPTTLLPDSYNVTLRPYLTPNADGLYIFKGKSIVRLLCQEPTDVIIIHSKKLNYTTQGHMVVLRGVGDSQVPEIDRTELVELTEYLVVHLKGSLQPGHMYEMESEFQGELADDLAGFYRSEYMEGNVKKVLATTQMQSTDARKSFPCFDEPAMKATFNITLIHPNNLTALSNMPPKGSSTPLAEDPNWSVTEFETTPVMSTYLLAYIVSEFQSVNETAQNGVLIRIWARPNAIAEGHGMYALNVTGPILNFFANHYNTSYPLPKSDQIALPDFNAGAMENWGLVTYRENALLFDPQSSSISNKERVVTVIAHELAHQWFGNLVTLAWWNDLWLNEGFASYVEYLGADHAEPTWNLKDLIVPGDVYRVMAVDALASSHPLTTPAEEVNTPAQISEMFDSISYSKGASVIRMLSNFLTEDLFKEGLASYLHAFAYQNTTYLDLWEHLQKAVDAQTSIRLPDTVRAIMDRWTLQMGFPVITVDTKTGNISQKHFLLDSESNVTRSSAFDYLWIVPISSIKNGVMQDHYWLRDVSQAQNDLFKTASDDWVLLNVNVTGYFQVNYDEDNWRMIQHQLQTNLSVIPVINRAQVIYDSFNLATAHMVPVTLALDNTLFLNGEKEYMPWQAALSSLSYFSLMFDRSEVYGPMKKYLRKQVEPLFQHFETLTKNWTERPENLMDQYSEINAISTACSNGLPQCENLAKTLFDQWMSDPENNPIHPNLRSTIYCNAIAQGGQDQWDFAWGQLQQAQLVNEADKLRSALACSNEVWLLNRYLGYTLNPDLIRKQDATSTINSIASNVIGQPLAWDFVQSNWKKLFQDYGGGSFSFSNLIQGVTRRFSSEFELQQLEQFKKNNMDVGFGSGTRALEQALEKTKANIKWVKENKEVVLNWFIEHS
Protocol: as §1
To evaluate the specificity of the compounds according to the invention, some of them were also tested for their capacity to inhibit the activity of membrane aminopeptidase M (EC 3.4.11.2). The same test is carried out with 0.1 μg of aminopeptidase M (Pierce, USA).

[6] = tested on: collagen-induced arthritis; experiment: Collagen-induced arthritis in the rat (arthritis score); type: in vivo, rat "Dark Aganti"; settings: score at 23rd day
Protocol: c) Antiarthritic effect Collagen-induced arthritis was induced in the rat “Dark […]” according to the protocol by Kamada et al. (Jpn J. Pharmacol., 1997, 74: 313). The LTA4 hydrolase inhibitors are administered either “preventively” (starting from one day after the collagen), or curatively (during the first pathological manifestations, that is starting from 15 days after the collagen). […] The effect is-compared with that of indomethacin (1.5 mg/kg, p.o.).

biosynthesis of LTB4 = experiment: Inhibition of the biosynthesis of LTB4 ex vivo (mouse blood after oral dosing); type: in vivo; settings: mice, blood collected thirty minutes later
Protocol: 3) Inhibition of the biosynthesis of LTB4 ex vivo
The compounds inhibiting LTA4 hydrolase according to the invention are suspended in 1.25% methyl cellulose and administered to mice by the oral route at the dose of 10 mg/kg. Thirty minutes later, the mice are sacrificed and the blood collected over lithium heparinate. The blood is then, as above, incubated for 10 minutes at 37° C. in the presence of LTA4 and then the LTB4 formed is assayed by enzyme-linked immunoassay.

Ki [1]: 0.19 µM | Ki [2]: 0.015 µM
Compound: NC(CS)CCOc1ccccc1 (racemic) [Example 172, (R,S)-2-amino-4-phenoxy-1-butanethiol hydrochloride]

Compound: Cl.N[C@@H](CS)CCCCOc1ccccc1 (racemic) [Example 156, (R,S) -2-amino-6-phenoxy-1-hexanethiol hydrochloride]
Inhibition (%) of oedema of the leg induced by Zymosan [3]: 35% | % LTB4 relative to the noninflamed control ([4]; carrageenan + LTA4 hydrolase inhibitor 25 mg/kg oral, 4 h after carrageenan): −24% | % LTB4 relative to the noninflamed control ([4]; carrageenan + indomethacin 5 mg/kg + inhibitor 25 mg/kg in combination, oral): −28%

Ki [1]: 0.2 µM | Ki [2]: 0.033 µM | Ki [5]: 0.2 µM
Compound: NC(CS)CCCCc1ccccc1 (racemic) [Example 173, (R,S)-2-amino-6-phenyl-1-hexanethiol hydrochloride]

Compound: COc1ccc2c(c1)c(CC(=O)O)c(C)n2C(=O)c1ccc(Cl)cc1 [indomethacin, reference compound]
Arthritis score ([6]; curative, 1.5 mg/kg p.o.): 1.35 ± 0.61 | % LTB4 relative to the noninflamed control ([4]; carrageenan + indomethacin 5 mg/kg oral, 4 h after carrageenan): +516%

Compound: N[C@H](CS)COCc1ccccc1 [Example 24, (S)-2-amino-3-benzyloxy-1-propanethiol hydrochloride]
inhibition at 10 mg/kg (biosynthesis of LTB4; Mus musculus): 28%

Compound: Cl.N[C@@H](CS)CCCOc1ccccc1 (racemic) [Example 177, (R,S)-2-amino-5-phenoxy-1-pentanethiol hydrochloride]
Inhibition (%) of the biosynthesis of LTB4 ex vivo (biosynthesis of LTB4; 10 mg/kg): 68%

Ki [2]: 0.062 µM
Compound: N[C@@H](CS)CSCc1ccccc1 [Example 23, (S)-2-amino-3-benzylthio-1-propanethiol hydrochloride]

Compound: Cl.Cl.NC(CCCCOc1ccccc1)CSSCC(N)CCCCOc1ccccc1 [Example 229, 1,1-dithiobis(2-(R,S)-amino-6-phenoxyhexane) dihydrochloride]
Arthritis score ([6]; curative (starting 15 days after collagen), 10 mg/kg i.p. twice/day): 0.38 ± 0.19 | Arthritis score ([6]; preventive (starting one day after collagen), 10 mg/kg i.p. twice/day): 0
